Source: patent US20060024376A1, “Methods and compositions for reducing toxicity associated with leflunomide treatment” (The University of Chicago, priority 2004, published 2006)
Several values for one entry are separate records, joined by “and”; a condition that tells them apart may be missing. Identical values can stand only once.

Legend:
[1] = background statement, cited from earlier work
[2] = Leflunomide toxicity measured by hematocrit; format: in vivo, Lewis rats; conditions: for Hct Week 0 / Hct Week 1 / Hct Week 2 / Hct Week 3 / Hct Week 4: individual rat; for Hct Week 0: baseline hematocrit; for Hct Week 1: week 1 of therapy; for Hct Week 2: week 2 of therapy; for Hct Week 3: week 3 of therapy; for Hct Week 4: week 4 of therapy
Description: The experiment of Example 2 was repeated in Lewis rats and the hematocrit measured weekly for four weeks. The rats receiving treatment were divided into five groups wherein each group received 30/mg/kg/day leflunomide, a toxic, high dose. Group I received leflunomide only. Group II received the leflunomide dose plus 36/mg/kg/day of sodium orotate; group III received the leflunomide dose plus 100 mg/kg/day of sodium orotate; group IV received the leflunomide dose plus 88 mg/kg/day of orotic acid; and group V received the leflunomide dose plus 250 mg/kg/day of uridine given IP. A baseline hematocrit was measured, and hematocrits of each rat were measured at weeks 1-4 post commencement of therapy.

[3] = test system: heart transplants from Brown-Norway rats; assay: Heart transplant acute rejection: graft survival and inflammation score; format: in vivo, Lewis Rats; conditions: for Graft survival / Inflammation score (Mean) (0-3): orotic acid 0 mg/kg/day; for Inflammation score (Mean) (0-3): 0 = no inflammation
Description: Treatments included 0, 5, 10 or 15 mg/kg of leflunomide in combination with 0 or 100 mg/kg orotic acid.

CC(=O)OC[C@H]1O[C@@H](n2ccc(=O)[nH]c2=O)[C@H](OC(C)=O)[C@@H]1OC(C)=O [TAU, 2′, 3′, 5′-tri-O-acetyl uridine]
oral bioavailability [1]: orally bioavailable

Cc1oncc1C(=O)Nc1ccc(C(F)(F)F)cc1 [leflunomide, N-(4-trifluoromethylphenyl)-5-methylisoxazol-4-carboxamide]
Hct Week 4, group Mean ([2]; group mean, week 4): Mean: 23.8
Hct Week 0 ([2]; listed as L 30): 53 and 54 and 55 and 52
Hct Week 0 ([2]; listed as L30): 51 and 57
Hct Week 1 ([2]; listed as L 30): 53 and 55 and 49 and 50
Hct Week 1 ([2]; listed as L30): 47 and 52
Hct Week 2 ([2]; listed as L 30): 44 and 54 and 48 and 46
Hct Week 2 ([2]; listed as L30): 39 and 46
Hct Week 3 ([2]; listed as L 30): 41 and 37 (2×) and 33
Hct Week 3 ([2]; listed as L30): 31 and 33
Hct Week 4 ([2]; listed as L 30): 30 (2×) and 24 and 22
Hct Week 4 ([2]; listed as L30): 17 and 20
Graft survival ([3]; leflunomide 5 mg/kg/day): >30 days
Inflammation score (Mean) (0-3) ([3]; leflunomide 5 mg/kg/day): 2.0
Graft survival ([3]; leflunomide 10 mg/kg/day): >30 days
Inflammation score (Mean) (0-3) ([3]; leflunomide 10 mg/kg/day): 1.7
Graft survival ([3]; leflunomide 15 mg/kg/day): >30 days
Inflammation score (Mean) (0-3) ([3]; leflunomide 15 mg/kg/day): 1.5
Intensity of the rejection reaction (inflammation score) ([3]; leflunomide 5, 10, 15 mg/kg, dose-related): reduced the intensity of the rejection reaction

O=C(O)c1cc(=O)[nH]c(=O)[nH]1 [orotic acid]
bioavailability ([1]; no test described): approximately 50%
Effect of orotic acid on efficacy of leflunomide to reduce the rejection reaction ([3]; orotic acid 100 mg/kg with leflunomide 5-15 mg/kg): did not significantly affect the efficacy of leflunomide
